Laboratory results from patent publication US20170333591A9, “ABSORBENT ARTICLE COMPRISING MALODOR REDUCTION COMPOSITIONS” (The Procter & Gamble Company, priority 2014, published 2017).

Test: Log of liquid dish neat product liquid-air partition coefficient
Type: physicochemical
Conditions: for Log of liquid dish neat product liquid-air partition coefficient (Comment Code K/L): code letter within the Comment Code cell

| Structure (SMILES) | Log of liquid dish neat product liquid-air partition coefficient (Comment Code K/L) | Comment Code: Log of liquid dish neat product liquid-air partition coefficient |
| --- | --- | --- |
| CCCCCCCCCCCC(=O)OC(C)C [Material 197] | K (Log of liquid dish neat product liquid-air partition coefficient greater than or equal to 7) |  |
| CC1CCCCCCCCCCCCC(=O)C1 (centres unmarked) [Material 206] | K (Log of liquid dish neat product liquid-air partition coefficient greater than or equal to 7) | K (Log of liquid dish neat product liquid-air partition coefficient greater than or equal to 7) |
| CC(C)=CCCC1=CCC(C=O)CC1 (centres unmarked) [Material 211] | K (Log of liquid dish neat product liquid-air partition coefficient greater than or equal to 7) |  |
| CC=Cc1ccc(OC(C)=O)c(OC)c1 [Material 213] |  | K (Log of liquid dish neat product liquid-air partition coefficient greater than or equal to 7) |
| CC=Cc1ccc(O)c(OC)c1 [Material 214] |  | K (Log of liquid dish neat product liquid-air partition coefficient greater than or equal to 7) |
| CC(=O)[C@@]1(C)CC2=C(CCCC2(C)C)C[C@@H]1C [Material 215] | K (Log of liquid dish neat product liquid-air partition coefficient greater than or equal to 7) | K (Log of liquid dish neat product liquid-air partition coefficient greater than or equal to 7) |
| CCC(=O)OC1CC2CCC1(C)C2(C)C (centres unmarked) [Material 228] | K (Log of liquid dish neat product liquid-air partition coefficient greater than or equal to 7) |  |
| CC(C)C(=O)OC1CC2CCC1(C)C2(C)C (centres unmarked) [Material 229] | K (Log of liquid dish neat product liquid-air partition coefficient greater than or equal to 7) | K (Log of liquid dish neat product liquid-air partition coefficient greater than or equal to 7) |
| CC1C2CC(CC2C2CCC(O)CC2)C1(C)C (centres unmarked) [Material 230] | K (Log of liquid dish neat product liquid-air partition coefficient greater than or equal to 7) | K (Log of liquid dish neat product liquid-air partition coefficient greater than or equal to 7) |
| C=CCCCCCCCCC(=O)OCCC(C)C [Material 234] | K (Log of liquid dish neat product liquid-air partition coefficient greater than or equal to 7) |  |
| CCCCCCCC(=O)OCCC(C)C [Material 237] |  | K (Log of liquid dish neat product liquid-air partition coefficient greater than or equal to 7) |
| CCCCCCCCCCCC(=O)OCCC(C)C [Material 238] | K (Log of liquid dish neat product liquid-air partition coefficient greater than or equal to 7) |  |
| c1ccc2c(c1)CC1COCOC21 (centres unmarked) [Material 247] | K (Log of liquid dish neat product liquid-air partition coefficient greater than or equal to 7) |  |
| CC1(C)C2=C(CO)CCC(C)(C)C23CCC1C3 (centres unmarked) [Material 248] |  | K (Log of liquid dish neat product liquid-air partition coefficient greater than or equal to 7) |
| CC(CCO)CCCC(C)(C)O (centres unmarked) [Material 249] | K (Log of liquid dish neat product liquid-air partition coefficient greater than or equal to 7) |  |
| CC(CO)C1CCCCCCCCCCC1 (centres unmarked) [Material 252] | K (Log of liquid dish neat product liquid-air partition coefficient greater than or equal to 7) |  |
| OCCCc1ccccc1 [Material 254] | K (Log of liquid dish neat product liquid-air partition coefficient greater than or equal to 7) |  |
| O=C(O)CCc1ccccc1 [Material 255] |  | K (Log of liquid dish neat product liquid-air partition coefficient greater than or equal to 7) |
| COC(OC)C(C)c1ccccc1 (centres unmarked) [Material 256] | K (Log of liquid dish neat product liquid-air partition coefficient greater than or equal to 7) |  |
| CCC1=C(O)C(=O)C(C)O1 (centres unmarked) [Material 259] | K (Log of liquid dish neat product liquid-air partition coefficient greater than or equal to 7) |  |
| CC1(C)CCc2ccc(CCC=O)cc21 [Material 260] | K (Log of liquid dish neat product liquid-air partition coefficient greater than or equal to 7) | K (Log of liquid dish neat product liquid-air partition coefficient greater than or equal to 7) |
| CC1(C)CCc2ccc(CCC=O)cc21 [Material 261] | K (Log of liquid dish neat product liquid-air partition coefficient greater than or equal to 7) | K (Log of liquid dish neat product liquid-air partition coefficient greater than or equal to 7) |
| CCCCCCCC(=O)OCCCCCC [Material 263] | K (Log of liquid dish neat product liquid-air partition coefficient greater than or equal to 7) |  |
| CCCCCCOC(=O)c1ccccc1 [Material 271] | K (Log of liquid dish neat product liquid-air partition coefficient greater than or equal to 7) |  |

| Structure (SMILES) | Log of liquid dish neat product liquid-air partition coefficient (Comment Code K/L) | Comment Code: Log of liquid dish neat product liquid-air partition coefficient |
| --- | --- | --- |
| CC=C(C)C(=O)OCCC=CCC [Material 274] | K (Log of liquid dish neat product liquid-air partition coefficient greater than or equal to 7) |  |
| CCCCCCOC(=O)c1ccco1 [Material 275] |  | K (Log of liquid dish neat product liquid-air partition coefficient greater than or equal to 7) |
| O=C1CCCCCCCCCCCCCCCO1 [Material 277] | K (Log of liquid dish neat product liquid-air partition coefficient greater than or equal to 7) |  |
| CCOC(=O)C1C2C=CC(C2)C1C(C)C (centres unmarked) [Material 280] | K (Log of liquid dish neat product liquid-air partition coefficient greater than or equal to 7) |  |
| CC(=O)OC1CC2CC1C1CC=CC21 (centres unmarked) [Material 281] | K (Log of liquid dish neat product liquid-air partition coefficient greater than or equal to 7) | K (Log of liquid dish neat product liquid-air partition coefficient greater than or equal to 7) |
| O=Cc1ccc2c(c1)OCO2 [Material 287] |  | K (Log of liquid dish neat product liquid-air partition coefficient greater than or equal to 7) |
| CC(C=O)Cc1ccc2c(c1)OCO2 (centres unmarked) [Material 288] | K (Log of liquid dish neat product liquid-air partition coefficient greater than or equal to 7) |  |
| O=C1CCCCCCCCCC/C=C/CCO1 [Material 289] | K (Log of liquid dish neat product liquid-air partition coefficient greater than or equal to 7) |  |
| CC1CCC(C(C)(C)O)CC2=C1CCC2C (centres unmarked) [Material 292] | K (Log of liquid dish neat product liquid-air partition coefficient greater than or equal to 7) |  |
| CCC(=O)CCC1C(C)=CCCC1(C)C (centres unmarked) [Material 293] | K (Log of liquid dish neat product liquid-air partition coefficient greater than or equal to 7) |  |
| CCOC(=O)C1C(CC)=CCCC1(C)C (centres unmarked) [Material 294] | K (Log of liquid dish neat product liquid-air partition coefficient greater than or equal to 7) |  |
| CC1=CCC(=C(C)C)CCC(C)=CCC1 [Material 295] | K (Log of liquid dish neat product liquid-air partition coefficient greater than or equal to 7) |  |
| C=C1C=CC(C(C)C)CCC(C)=CCC1 (centres unmarked) [Material 296] | K (Log of liquid dish neat product liquid-air partition coefficient greater than or equal to 7) |  |
| CC(C)=CCC/C(C)=C/COC=O [Material 306] |  | K (Log of liquid dish neat product liquid-air partition coefficient greater than or equal to 7) |
| CCC(C)C(=O)N(C)c1ccccc1 (centres unmarked) [Material 314] |  | K (Log of liquid dish neat product liquid-air partition coefficient greater than or equal to 7) |
| CC(=O)OC1(C)CCC(=C(C)C)CC1 (centres unmarked) [Material 317] | K (Log of liquid dish neat product liquid-air partition coefficient greater than or equal to 7) |  |
| CC(C)=C1CCC(C)(O)CC1 (centres unmarked) [Material 318] | K (Log of liquid dish neat product liquid-air partition coefficient greater than or equal to 7) |  |
| C=C1CCCC(C)(C)C1C=CC(C)=O (centres unmarked) [Material 324] | K (Log of liquid dish neat product liquid-air partition coefficient greater than or equal to 7) |  |
| CC1=C2CC(C(C)(C)O)CCC2(C)CCC1 (centres unmarked) [Material 329] | K (Log of liquid dish neat product liquid-air partition coefficient greater than or equal to 7) | K (Log of liquid dish neat product liquid-air partition coefficient greater than or equal to 7) |
| CCCCCCCCC1CCC(=O)O1 (centres unmarked) [Material 330] | K (Log of liquid dish neat product liquid-air partition coefficient greater than or equal to 7) |  |
| C=C1CCCC(C)(C)C1C(=O)C=CC (centres unmarked) [Material 331] | K (Log of liquid dish neat product liquid-air partition coefficient greater than or equal to 7) |  |
| C=CCCC(=O)C1CCCC(C)(C)C1 (centres unmarked) [Material 334] | K (Log of liquid dish neat product liquid-air partition coefficient greater than or equal to 7) |  |
| CC1COCc2cc3c(cc21)C(C)(C)C(C)C3(C)C (centres unmarked) [Material 335] | K (Log of liquid dish neat product liquid-air partition coefficient greater than or equal to 7) | K (Log of liquid dish neat product liquid-air partition coefficient greater than or equal to 7) |
